Data on 27 compounds can be found in ChEMBL document CHEMBL4483862, “Open-source discovery of chemical leads for next-generation chemoprotective antimalarials” (2018).

The term pIC50 denotes the negative decadic logarithm of the IC50, by convention in mol/L. Broadly, the IC90 is the concentration at which the effect reaches the 90% level.

SMILES strings stand for the structures. pIC50: −log10 of the molar value.

This test concerns Plasmodium berghei. Kind of test: Luciferase/luciferin-expressing antifolate-resistant parasites were used to infect a culture of HepG2 cells that were pre-incubated with compounds. Infected hepatocytes emit light due to the luciferase reaction. Assay results are presented as the percent inhibition of light emission compared to control. […]. In kind it is functional. The settings on record: sporozoite; for IC90: read-out: LUCIFERASE INFECTION ASSAY - IC90.

[1] abbreviates: read-out: LUCIFERASE INFECTION ASSAY - IC50.

Consider `CC(=O)c1cccc(NC(=O)Nc2ccc3nc(-c4cccc(C(F)(F)F)c4)nn3c2)c1`, for which the concentration for an effect of 90% (IC90) stood at 9.17 µM. For the same compound, the pIC50 (HEPG2TOX_HILL_SLOPE 8.68, HEPG2TOX_R_SQUARED 0.208, PBLUC_HILL_SLOPE 3.77, PBLUC_R_SQUARED 0.543, read-out: LUCIFERASE INFECTION ASSAY - IC50) is 5.29.
With `Cc1ccc(C2c3c(-c4cc(C)cc(C)c4O)n[nH]c3C(=O)N2CCCO)cc1` (centres undefined), the IC90 is more than 8.43 µM. Besides, for the setting “HEPG2TOX_HILL_SLOPE 0.468, HEPG2TOX_R_SQUARED 0.76, PBLUC_HILL_SLOPE 1.88, PBLUC_R_SQUARED 0.575, read-out: LUCIFERASE INFECTION ASSAY - IC50”, the pIC50 was 5.26.
`COc1ccc(N(Cc2cn(-c3ccccc3)nc2-c2ccc(Cl)cc2)S(=O)(=O)c2ccccc2)cc1`: the IC90 was more than 10 µM. Moreover, the negative-log IC50 (pIC50) (FFLUC_HILL_SLOPE 12.1, FFLUC_R_SQUARED 0.616, PBLUC_HILL_SLOPE 4, PBLUC_R_SQUARED 0.331, read-out: LUCIFERASE INFECTION ASSAY - IC50) was 5.12.
On to `Cc1nn(-c2ccccc2)c(Cl)c1CSc1nnc(/C=C/c2ccc(F)cc2)[nH]1`, for which the IC90 is more than 10 µM. The pIC50 under setting [1] is less than 5.00.
As to `Cc1ccc(C2CC(c3cccs3)=NN2c2ccc(C=C(C#N)C#N)cc2)o1` (centres undefined), the IC90 was more than 10 µM. Also, the pIC50 (FFLUC_HILL_SLOPE 2.65, FFLUC_R_SQUARED 0.905, HEPG2TOX_HILL_SLOPE 1.94, HEPG2TOX_R_SQUARED 0.705, PBLUC_HILL_SLOPE 0.92, PBLUC_R_SQUARED 0.729, read-out: LUCIFERASE INFECTION ASSAY - IC50) is 5.77.
For the compound `COc1ccc(NC(=O)c2ccc(CN(C)C3CCCCCC3)cc2)cc1`, the IC90 is more than 2 µM. The pIC50 (PBLUC_HILL_SLOPE 0.775, PBLUC_R_SQUARED 0.25, read-out: LUCIFERASE INFECTION ASSAY - IC50) was 5.76.
Turning to `O=C(Nc1ccc(F)c(Cl)c1)c1ccccc1O`, the IC90 was more than 12.4 µM. The pIC50 under setting [1] is less than 4.91.
As to `O=C(Nc1ccc(Oc2ccccc2)cc1)c1noc(-c2ccccc2)n1`, the IC90 was found to be 6.61 µM. Moreover, the pIC50 (PBLUC_HILL_SLOPE 3.74, PBLUC_R_SQUARED 0.217, read-out: LUCIFERASE INFECTION ASSAY - IC50) was 5.44.
For `Cc1ccc(C(NCC(=O)Nc2sccc2C(N)=O)c2cccs2)cc1` (centres undefined), the IC90 was determined as 3.67 µM. Further, under “PBLUC_HILL_SLOPE 4.31, PBLUC_R_SQUARED 0.32, read-out: LUCIFERASE INFECTION ASSAY - IC50”, the pIC50 was 5.66.
For the compound `Cc1ccc(-c2nc3c(s2)CN(C(=O)c2ccc4c(c2)OCO4)CC3)cc1`, the IC90 is more than 8.72 µM. Further, the pIC50 (HEPG2TOX_HILL_SLOPE 8.84, HEPG2TOX_R_SQUARED 0.538, PBLUC_HILL_SLOPE 2.18, PBLUC_R_SQUARED 0.0909, read-out: LUCIFERASE INFECTION ASSAY - IC50) is 5.15.
Consider `CCCNS(=O)(=O)c1cccc(C(=O)N2CCN(c3cccc(OC)c3)CC2)c1`, for which the IC90 was more than 10 µM. Further, under “HEPG2TOX_HILL_SLOPE 3.58, HEPG2TOX_R_SQUARED 0.848, read-out: LUCIFERASE INFECTION ASSAY - IC50”, the pIC50 is less than 5.00.
As for `Cc1cc2c(cc1C)C(NCCc1ccccc1)=NC(C)(C)C2`, the IC90 worked out at 5.1 µM. The pIC50 (HEPG2TOX_HILL_SLOPE 5.51, HEPG2TOX_R_SQUARED 0.604, PBLUC_HILL_SLOPE 9.09, PBLUC_R_SQUARED 0.396, read-out: LUCIFERASE INFECTION ASSAY - IC50) is 5.40.
Consider `O=C(CN1CCC(c2c[nH]c3ccccc23)CC1)Nc1ccc(Cl)c([N+](=O)[O-])c1`, for which the IC90 is 9.15 µM. Under “FFLUC_HILL_SLOPE 16.3, FFLUC_R_SQUARED 0.426, PBLUC_HILL_SLOPE 3.46, PBLUC_R_SQUARED 0.601, read-out: LUCIFERASE INFECTION ASSAY - IC50”, the pIC50 was 5.31.
Regarding `CN(C)c1nc(N)nc(CSc2nc(N)c3c4c(sc3n2)CCCC4)n1`, the IC90 was more than 10 µM. Further, the pIC50 (HEPG2TOX_HILL_SLOPE 2.63, HEPG2TOX_R_SQUARED 0.627, PBLUC_HILL_SLOPE 2.91, PBLUC_R_SQUARED 0.214, read-out: LUCIFERASE INFECTION ASSAY - IC50) was 5.04.
Regarding `CC(C)Cn1c(SCc2cn3cc(Cl)ccc3n2)nc2ccccc2c1=O`, the IC90 came out at 7.86 µM. Further, where the note is “HEPG2TOX_HILL_SLOPE 1.44, HEPG2TOX_R_SQUARED 0.631, PBLUC_HILL_SLOPE 96, PBLUC_R_SQUARED 0.548, read-out: LUCIFERASE INFECTION ASSAY - IC50”, the pIC50 is 5.11.
Consider `CC1CCc2ccccc2N1CC(=O)N(CCC(N)=O)Cc1ccccc1` (centres undefined), for which the IC90 was more than 10 µM. In addition, the pIC50 under setting [1] is less than 5.00.
For `NC(=O)c1ccc(N2CCNCC2)nc1`, the IC90 was more than 10 µM. For the same compound, under setting [1], the pIC50 was less than 5.00.
For `Cn1ccnc1/C(=N\NC(=O)c1sc2ccccc2c1Cl)c1cccc([N+](=O)[O-])c1`, in that order: more than 10 µM and less than 5.00.
`COC(=O)c1sccc1N/N=C(\C#N)S(=O)(=O)c1ccc(Cl)cc1`: the IC90 was more than 8.6 µM. Further, the pIC50 under setting [1] was less than 5.07.
With `CC(N)C(=O)NCC(F)(F)F` (centres undefined), the IC90 is more than 10 µM. Besides, the pIC50 under setting [1] is less than 5.00.
`COc1ccc(Nc2nccc3nc(-c4cccc(OC(F)(F)F)c4)[nH]c23)cc1OC`: the IC90 was more than 10 µM. Further, under setting [1], the pIC50 is 5.45.
For the compound `COc1cccc(-c2nc3ccc(NC(=O)Nc4ccc(OC(F)(F)F)cc4)cn3n2)c1`, the IC90 is more than 10 µM. The pIC50 (FFLUC_HILL_SLOPE 45.6, FFLUC_R_SQUARED 0.742, read-out: LUCIFERASE INFECTION ASSAY - IC50) is less than 5.00.
Regarding `COCCNC(=O)C1CCN(C(C(=O)c2c[nH]c3ccccc23)c2ccccc2)CC1` (centres undefined), the IC90 came to 4.42 µM. Also, the pIC50 (PBLUC_HILL_SLOPE 1.13, PBLUC_R_SQUARED 0.77, read-out: LUCIFERASE INFECTION ASSAY - IC50) is 6.20.
For the compound `Cc1sc2nc3c4ccccc4c(Cl)nn3c(=O)c2c1C`, the IC90 is more than 10 µM. Also, where the note is “HEPG2TOX_HILL_SLOPE 1.74, HEPG2TOX_R_SQUARED 0.905, PBLUC_HILL_SLOPE 1.87, PBLUC_R_SQUARED 0.353, read-out: LUCIFERASE INFECTION ASSAY - IC50”, the pIC50 is 5.25.
For the compound `N#CCSC1=CC(=O)CC(c2ccccc2)S1` (centres undefined), the IC90 was more than 12.6 µM. The pIC50 under setting [1] was less than 4.90.
With `COc1ccc(-c2cc(NC=O)c3ncc(-c4ccc(OC)c(OC)c4)n3c2)c(OC)c1`, the IC90 came to 0.0326 µM. In addition, the pIC50 (HEPG2TOX_HILL_SLOPE 0.668, HEPG2TOX_R_SQUARED 0.811, PBLUC_HILL_SLOPE 48.6, PBLUC_R_SQUARED 0.635, read-out: LUCIFERASE INFECTION ASSAY - IC50) was 7.51.
With `CCc1ccc(C2=NNC(=Nc3ccccc3F)SC2)s1`, the IC90 was more than 10 µM. Besides, the pIC50 under setting [1] was less than 5.00.
